The values below come from patent US5889013A, “Pyrimidine acyclonucleoside derivatives” (priority 1994, dated 1999).

The structures appear in SMILES notation.

One data set concerns HIV-1 (HTLV-IIIB strain). As to the kind of experiment: Inhibitory activity for HIV-induced cytopathogenicity (MT-4 cells, MTT method). The class given is cell-based. The conditions noted are these: Human immunodeficiency virus 1, IIIB, MT4, 144 h, read-out: 50% inhibitory concentration of HIV infection. The procedure:
(§1) In RPMI 1640 culture medium supplemented with 10% heat-inactivated fetal bovine serum, 2 mM of L-glutamine, 100 U/mL of penicillin G and 100 μg/mL of streptomycin, MT-4 cells (HTLV-1 transformed T4-cell line) at a concentration of 1×10^4 /well in a flat-bottom, microtiter plate were infected with 500 TCID50 of HIV-1 (HTLV-IIIB strain). Immediately after virus infection, sample serially diluted with culture medium from stock solution prepared in dimethyl sulfoxide was added to each well in quadriplicate. After 6 days incubation at 37° C., the viability of mock and HIV-infected cells was determined by the 3-(4,5-dimethylthiazol-2-yl)-2,5-diphenyltetrazolium bromide (MTT) method. And also, the cytotoxicity of sample to MT-4 cells not infected with HIV was assessed in parallel with its antiviral activity under the same way as above.
In general terms: Protection from cytopathic effect is a common read-out in antiviral testing.

Data set [1] can be described thus: Cytotoxicity to MT-4 cells not infected with HIV (MTT method). Particulars: human; MT-4 cells not infected with HIV, 6 days, 37° C., MTT; read-out: 50% cytotoxic concentration to MT-4 cells. It counts as cell-based. As to the method:
as §1
Background: Tetrazolium assays rely on reduction of a dye to a coloured formazan, in cell work by metabolically active cells.

For `CCc1c([Se]c2cccc(C)c2)n(COCCO)c(=S)[nH]c1=O` [Compound 2, 5-ethyl-1-[(2-hydroxyethoxy)methyl]-6-[(3-methylphenyl)selenenyl]-2-thiouracil], the IC50 in the data set on HIV-1 (HTLV-IIIB strain) came out at 40 nM. In addition, the CC50 at 144 h in data set [1] turned out to be 32 µM.

Take `CCc1c([Se]c2cc(C)cc(C)c2)n(COCCO)c(=S)[nH]c1=O` [Compound 3, 6-[(3,5-dimethylphenyl)selenenyl]-5-ethyl-1-[(2-hydroxyethoxy)methyl]-2-thiouracil]: the IC50 with HIV-1 (HTLV-IIIB strain) is 30 nM. Moreover, in data set [1], the CC50 at 144 h was determined as 32.5 µM.

With `Cc1cccc([Se]c2c(C(C)C)c(=O)[nH]c(=S)n2COCCO)c1` [Compound 5, 1-[(2-hydroxyethoxy)methyl]-5-isopropyl-6-[(3-methylphenyl)-selenenyl]-2-thiouracil], the IC50 in the data set on HIV-1 (HTLV-IIIB strain) is 38 nM. Also, the CC50 at 144 h in data set [1] is 31.7 µM.

For the compound `Cc1cc(C)cc([Se]c2c(C(C)C)c(=O)[nH]c(=S)n2COCCO)c1` [Compound 6, 6-[(3,5-dimethylphenyl)selenenyl]-1-[(2-hydroxyethoxy)methyl]-5-isopropyl-2-thiouracil], the IC50 in the data set on HIV-1 (HTLV-IIIB strain) was 8 nM. Besides, in data set [1], the CC50 at 144 h was found to be 32.4 µM.

Consider `CCc1c([Se]c2cc(C)cc(C)c2)n(COCCO)c(=O)[nH]c1=O` [Compound 9, 6-[(3,5-dimethylphenyl)selenenyl]-5-ethyl-1-[(2-hydroxyethoxy)-methyl]uracil], for which, in the data set on HIV-1 (HTLV-IIIB strain), the IC50 worked out at 15 nM. Further, the CC50 at 144 h in data set [1] turned out to be 34.5 µM.

On to `Cc1cccc([Se]c2c(C(C)C)c(=O)[nH]c(=O)n2COCCO)c1` [Compound 11, 1-[(2-hydroxyethoxy)methyl]-5-isopropyl-6-[(3-methylphenyl)-selenenyl]uracil], for which the IC50 in the data set on HIV-1 (HTLV-IIIB strain) was determined as 15 nM. Besides, the CC50 at 144 h in data set [1] was determined as 30.5 µM.

Regarding `Cc1cc(C)cc([Se]c2c(C(C)C)c(=O)[nH]c(=O)n2COCCO)c1` [Compound 12, 6-[(3,5-dimethylphenyl)selenenyl]-1-[(2-hydroxyethoxy)methyl]-5-isopropyluracil], the IC50 in the data set with HIV-1 (HTLV-IIIB strain) was 1.9 nM. The CC50 at 144 h in data set [1] was 29.1 µM.

On to `CCOCn1c([Se]c2ccccc2)c(CC)c(=O)[nH]c1=S` [Compound 15, 1-(ethoxymethyl)-5-ethyl-6-(phenylselenenyl)-2-thiouracil], for which the IC50 in the data set on HIV-1 (HTLV-IIIB strain) came out at 24 nM. Also, the CC50 at 144 h in data set [1] was found to be 26.1 µM.

With `CCOCn1c([Se]c2cccc(C)c2)c(CC)c(=O)[nH]c1=S` [Compound 16, 1-(ethoxymethyl)-5-ethyl-6-[(3-methylphenyl)selenenyl]-2-thiouracil], the IC50 with HIV-1 (HTLV-IIIB strain) worked out at 8 nM. The CC50 at 144 h in data set [1] came to 24.8 µM.

Turning to `CCOCn1c([Se]c2cc(C)cc(C)c2)c(CC)c(=O)[nH]c1=S` [Compound 17, 6-[(3,5-dimethylphenyl)selenenyl]-1-(ethoxymethyl)-5-ethyl-2-thiouracil], the IC50 in the data set on HIV-1 (HTLV-IIIB strain) was determined as 8 nM. The CC50 at 144 h in data set [1] was 28.8 µM.

Turning to `CCOCn1c([Se]c2cc(F)cc(F)c2)c(CC)c(=O)[nH]c1=S` [Compound 18, 6-[(3,5-difluorophenyl)selenenyl]-1-(ethoxymethyl)-5-ethyl-2-thiouracil], the IC50 in the data set with HIV-1 (HTLV-IIIB strain) was 14 nM. The CC50 at 144 h in data set [1] came to 7.8 µM.

In the case of `CCc1c([Se]c2ccccc2)n(COCc2ccccc2)c(=S)[nH]c1=O` [Compound 19, 1-[(benzyloxy)methyl)-5-ethyl-6-(phenylselenenyl)-2-thiouracil], in the data set with HIV-1 (HTLV-IIIB strain), the IC50 amounted to 4 nM. Besides, the CC50 at 144 h in data set [1] worked out at 25.1 µM.

For `CCc1c([Se]c2cccc(C)c2)n(COCc2ccccc2)c(=S)[nH]c1=O` [Compound 20, 1-[(benzyloxy)methyl]-5-ethyl-6-[(3-methylphenyl)selenenyl]-2-thiouracil], the IC50 in the data set on HIV-1 (HTLV-IIIB strain) stood at 0.8 nM. For the same compound, in data set [1], the CC50 at 144 h amounted to 43.4 µM.

`CCc1c([Se]c2cc(C)cc(C)c2)n(COCc2ccccc2)c(=S)[nH]c1=O` [Compound 21, 1-[(benzyloxy)methyl]-6-[(3,5-dimethylphenyl)selenenyl]-5-ethyl-2-thiouracil]: in the data set on HIV-1 (HTLV-IIIB strain), the IC50 worked out at 1.7 nM. In addition, in data set [1], the CC50 at 144 h was determined as 24.1 µM.

Take `CCOCn1c([Se]c2ccccc2)c(C(C)C)c(=O)[nH]c1=S` [Compound 22, 1-(ethoxymethyl)-5-isopropyl-6-(phenylselenenyl)-2-thiouracil]: the IC50 with HIV-1 (HTLV-IIIB strain) turned out to be 1.5 nM. Moreover, in data set [1], the CC50 at 144 h was 30.1 µM.

For the compound `CCOCn1c([Se]c2cccc(C)c2)c(C(C)C)c(=O)[nH]c1=S` [Compound 23, 1-(ethoxymethyl)-5-isopropyl-6-[(3-methylphenyl)selenenyl]-2-thiouracil], the IC50 in the data set with HIV-1 (HTLV-IIIB strain) came to 3.6 nM. Also, the CC50 at 144 h in data set [1] stood at 30.6 µM.

For `CCOCn1c([Se]c2cc(C)cc(C)c2)c(C(C)C)c(=O)[nH]c1=S` [Compound 24, 6-[(3,5-dimethylphenyl)selenenyl]-1-(ethoxymethyl)-5-isopropyl-2-thiouracil], the IC50 in the data set with HIV-1 (HTLV-IIIB strain) was 1.6 nM. For the same compound, in data set [1], the CC50 at 144 h is 31.7 µM.

With `CCOCn1c([Se]c2cc(F)cc(F)c2)c(C(C)C)c(=O)[nH]c1=S` [Compound 25, 6-[(3,5-difluorophenyl)selenenyl]-1-(ethoxymethyl)-5-isopropyl-2-thiouracil], the IC50 in the data set on HIV-1 (HTLV-IIIB strain) came to 27 nM. For the same compound, the CC50 at 144 h in data set [1] turned out to be 19.7 µM.

For the compound `CC(C)c1c([Se]c2ccccc2)n(COCc2ccccc2)c(=S)[nH]c1=O` [Compound 26, 1-[(benzyloxy)methyl]-5-isopropyl-6-(phenylselenenyl)-2-thiouracil], the IC50 in the data set with HIV-1 (HTLV-IIIB strain) is 0.7 nM. Besides, the CC50 at 144 h in data set [1] is 30.2 µM.

Regarding `Cc1cccc([Se]c2c(C(C)C)c(=O)[nH]c(=S)n2COCc2ccccc2)c1` [Compound 27, 1-[(benzyloxy)methyl]-5-isopropyl-6-[(3-methylphenyl)selenenyl]-2-thiouracil], the IC50 in the data set with HIV-1 (HTLV-IIIB strain) is 1.1 nM. In addition, the CC50 at 144 h in data set [1] was found to be 30 µM.

For the compound `Cc1cc(C)cc([Se]c2c(C(C)C)c(=O)[nH]c(=S)n2COCc2ccccc2)c1` [Compound 28, 1-[(benzyloxy)methyl]-6-[(3,5-dimethylphenyl)selenenyl]-5-isopropyl-2-thiouracil], the IC50 in the data set on HIV-1 (HTLV-IIIB strain) was found to be 5.4 nM. The CC50 at 144 h in data set [1] came to 30.9 µM.

In the case of `CCOCn1c([Se]c2cccc(C)c2)c(CC)c(=O)[nH]c1=O` [Compound 29, 1-(ethoxymethyl)-5-ethyl-6-[(3-methylphenyl)selenenyl]uracil], the IC50 in the data set with HIV-1 (HTLV-IIIB strain) was 4 nM. In addition, in data set [1], the CC50 at 144 h was 32.1 µM.

For `CCOCn1c([Se]c2cc(C)cc(C)c2)c(CC)c(=O)[nH]c1=O` [Compound 30, 6-[(3,5-dimethylphenyl)selenenyl]-1-(ethoxymethyl)-5-etlyluracil], the IC50 with HIV-1 (HTLV-IIIB strain) came out at 0.6 nM. Further, the CC50 at 144 h in data set [1] came to 28.9 µM.

For the compound `CCOCn1c([Se]c2cc(F)cc(F)c2)c(CC)c(=O)[nH]c1=O` [Compound 32, 6-[(3,5-difluorophenyl)selenenyl]-1-(ethoxymethyl)-5-ethyluracil], in the data set with HIV-1 (HTLV-IIIB strain), the IC50 is 6 nM. Besides, the CC50 at 144 h in data set [1] was determined as 30.6 µM.

In the case of `CCc1c([Se]c2cccc(C)c2)n(COCc2ccccc2)c(=O)[nH]c1=O` [Compound 37, 1-[(benzyloxy)methyl]-5-ethyl-6-[(3-methylphenyl)selenenyl]uracil], the IC50 with HIV-1 (HTLV-IIIB strain) amounted to 0.21 nM. In addition, in data set [1], the CC50 at 144 h worked out at 28.8 µM.

For `CCc1c([Se]c2cc(C)cc(C)c2)n(COCc2ccccc2)c(=O)[nH]c1=O` [Compound 38, 1-[(benzyloxy)methyl]-6-[(3,5-dimethylphenyl)selenenyl]-5-ethyluracil], in the data set with HIV-1 (HTLV-IIIB strain), the IC50 stood at 0.08 nM. In addition, the CC50 at 144 h in data set [1] was found to be 31.7 µM.

Turning to `CCOCn1c([Se]c2ccccc2)c(C(C)C)c(=O)[nH]c1=O` [Compound 48, 1-(ethoxymethyl)-5-isopropyl-6-(phenylselenenyl)uracil], in the data set on HIV-1 (HTLV-IIIB strain), the IC50 is 4.2 nM. Also, the CC50 at 144 h in data set [1] came to 32.5 µM.

With `CCOCn1c([Se]c2cccc(C)c2)c(C(C)C)c(=O)[nH]c1=O` [Compound 49, 1-(ethoxymethyl)-5-isopropyl-6-[(3-methylphenyl)selenenyl]uracil], in the data set with HIV-1 (HTLV-IIIB strain), the IC50 was determined as 0.7 nM. Also, the CC50 at 144 h in data set [1] stood at 29.2 µM.

As for `CCOCn1c([Se]c2cc(C)cc(C)c2)c(C(C)C)c(=O)[nH]c1=O` [Compound 50, 6-[(3,5-dimethylphenyl)selenenyl]-1-(ethoxymethyl)-5-isopropyluracil], the IC50 in the data set on HIV-1 (HTLV-IIIB strain) came to 0.07 nM. The CC50 at 144 h in data set [1] turned out to be 29.2 µM.

On to `CCOCn1c([Se]c2cc(F)cc(F)c2)c(C(C)C)c(=O)[nH]c1=O` [Compound 51, 6-[(3,5-difluorophenyl)selenenyl]-1-(ethoxymethyl)-5-isopropyluracil], for which the IC50 in the data set on HIV-1 (HTLV-IIIB strain) worked out at 1.2 nM. For the same compound, the CC50 at 144 h in data set [1] came out at 27.5 µM.

Turning to `CC(C)c1c([Se]c2ccccc2)n(COCc2ccccc2)c(=O)[nH]c1=O` [Compound 52, 1-[(benzyloxy)methyl]-5-isopropyl-6-(phenylselenenyl)uracil], the IC50 in the data set on HIV-1 (HTLV-IIIB strain) was found to be 0.1 nM. In data set [1], the CC50 at 144 h was found to be 29.4 µM.

With `Cc1cccc([Se]c2c(C(C)C)c(=O)[nH]c(=O)n2COCc2ccccc2)c1` [Compound 53, 1-[(benzyloxy)methyl]-5-isopropyl-6-[(3-methylphenyl)selenenyl]uracil], the IC50 in the data set on HIV-1 (HTLV-IIIB strain) was 0.07 nM. In addition, the CC50 at 144 h in data set [1] stood at 30.8 µM.

For `Cc1cc(C)cc([Se]c2c(C(C)C)c(=O)[nH]c(=O)n2COCc2ccccc2)c1` [Compound 54, 1-[(benzyloxy)methyl]-6-[(3,5-dimethylphenyl)selenenyl]-5-isopropyluracil], the IC50 with HIV-1 (HTLV-IIIB strain) came to 0.021 nM. Besides, the CC50 at 144 h in data set [1] was 30.2 µM.

Take `CCCCn1c([Se]c2ccccc2)c(CC)c(=O)[nH]c1=O` [Compound 64, 1-butyl-5-ethyl-6-(phenylselenenyl)uracil]: the IC50 with HIV-1 (HTLV-IIIB strain) came to 40 nM. Besides, the CC50 at 144 h in data set [1] amounted to 27.3 µM.
